Data on two substances can be found in PMC4279419, “Angiostatic, tumor inflammatory and anti-tumor effects of CXCL4^47–70 and CXCL4L1^47–70 in an EGF-dependent breast cancer model” (Oncotarget, 2014).

For one experiment, the system named is MDA-MB-231 cells. The experiment can be described thus: MDA-MB-231 MTT proliferation assay. It is filed as cell-based, human. As to conditions: control PI=1, DMEM + 1% FCS, 3 to 4 days, mean ± s.e.m. As for the experimental part: First, HMVEC and HLEC were seeded at 5 × 10^3 cells/well in EBM-2 + 1% FCS in a 96-well plate, whereas MDA-MB-231 were starved of growth factors overnight by replacing their growth medium with DMEM (serum-free) prior to seeding the tumor cells at 15 × 10^2 cells/well in DMEM + 1% FCS. As for the rest of the assay, the same protocol applies to all cells. Once adherent, cells were incubated with different concentrations of the peptides CXCL4^47–70 and CXCL4L1^47–70 as single stimuli or in combination with recombinant human EGF (3 ng/ml; R&D Systems, Minneapolis, MN) at 37°C/5% CO2. All conditions were tested in triplicate or quadruplicate. After 3 to 4 days, stimulation medium was removed and a sterile MTT solution was added [0.04 g/100 ml thiazolyl blue (Sigma-Aldrich, St. Louis, MO) in 20% PBS/80% RPMI without phenol red (Lonza)] for 3 to 4 hours. The formed formasan crystals were dissolved by replacing the MTT solution with acidic propanol (0.04 M HCl, 0.1% (v/v) Nondet P-40 in absolute isopropanol) and shaking the plate, shielded from light, for 10 minutes. Optical density (OD) was determined at 570 nm and 630 nm. The obtained ODs were processed to proliferation indexes (PI), expressed relative to appropriate buffer controls, i.e. ΔOD570–630X over ΔOD570–630CO.
For orientation: Tetrazolium dyes change colour on reduction, which living cells bring about.

The test system of experiment [1] is CD31-positive vessels of MDA-MB-231 tumors. In words: CD31 immunohistochemistry of resected tumors (vascularization). As to conditions: 2.5 μg intratumoral 3×/week; data not shown. It is filed as in vivo, mice. As for the experimental part: The impact of peptide treatment on the tumor vasculature was evaluated by quantification of immunohistochemically stained CD31-positive vessels. […] This inconsistency between our observations in vitro and in vivo evokes the question which alternative mechanisms may contribute to the anti-tumoral impact of peptide treatment as evidenced in the MDA-MB-231 tumor model.

Experiment [2] deals with F4/80^+ cells in MDA-MB-231 tumors. The experiment can be described thus: Flow cytometry of intratumoral F4/80^+ cells. It is filed as in vivo, mice. As to conditions: 2.5 μg intratumoral 3×/week; n=9; control 6.85 ± 1.18% (n=10). As for the experimental part: For flow cytometry, single cell suspensions were prepared from tumor biopsies using a MACS dissociator (Myltenyi Biotec, Bergisch Gladbach, Germany) and a mixture of collagenase A and dispase. Remaining cell clumps were removed by passing the cell suspension through a nylon cell strainer (70 μm mesh). Remaining red blood cells were lysed in ACK lysis buffer (0.15 M NH4Cl, 0.1 mM Na2EDTA, 10 mM KHCO3; pH = 7.2). Subsequently monocytes were identified by flow cytometry using specific antibodies, namely rat anti-mouse F4/80-PE antibody (eBiosciences, San Diego, CA).

The nature of experiment [3]: SPR (BIAcore) binding to immobilized heparin. The conditions noted are these: for Dissociation rate (Koff): BIAcore X100, HBS-EP+ pH 7.4; for Association rate (Kon): BIAcore X100, HBS-EP+ pH 7.4, 2 min injection, 30 μl/min. As for the experimental part: Next, we exploited surface plasmon resonance (SPR) analysis to assess the capacity of CXCL4^47–70 and CXCL4L1^47–70 to bind heparin immobilized to a BIAcore sensorchip, a model that mimics the binding of proteins to heparan sulphate proteoglycans associated to the cell surface. When increasing concentrations of the two peptides were injected onto the heparin surface, sensorgram overlays (not shown) allowed the calculation of association (Kon) and dissociation (Koff) rates and of Kd (as Koff/Kon ratio, Table 1). Also, equilibrium binding data were used to generate the saturation curves shown in Figure 8A and used to calculate a Kd value independently from kinetic parameters (Table 1).
SPR measurements were performed on a BIAcore X100 instrument (GE-Healthcare, Milwaukee, WI). Research-grade SA sensorchip was used. For the study of the interaction of heparin with CXCL4^47–70 and CXCL4L1^47–70, heparin was immobilized to a BIAcore sensorchip. Briefly, 13600 Da unfractionated heparin was biotinylated at its reducing end and immobilized onto the SA streptavidin-coated sensorchip. These experimental conditions allowed the immobilization of 200 resonance units (RU) equal to 14.7 fmol/mm^2 of heparin. A sensorchip coated with streptavidin alone was used as a reference and for blank subtraction. The peptides were dissolved in 10 mM HEPES buffer pH 7.4 containing 150 mM NaCl, 3 mM EDTA, 0.05% surfactant P20 (HBS-EP+) and injected at different concentrations over the heparin or streptavidin surfaces for 2 min at a flow rate of 30 μl/min and then washed until dissociation was observed. After each run, the sensorchip was regenerated by injection of HBS-EP+ containing 2.0 M NaCl.
(In general: Surface plasmon resonance follows binding to a sensor surface in real time, without labels.)

The next experiment has as its system endothelial cell. As to conditions: cited from earlier work. As for the experimental part: We investigated whether CXCL4^47–70 and CXCL4L1^47–70 counteracted other growth factors with similar efficiency. Consistent with previous work, both CXCL4^47–70 and CXCL4L1^47–70 (0.4 μg/ml) reduced FGF2-induced GM7373 prolifera ...
The next experiment has as its system CD204. The experiment can be described thus: qPCR tumor CD204 mRNA (M2 marker). It is filed as in vivo, murine. As to conditions: 2.5 μg intratumoral 3×/week; 2^−ΔΔCT. As for the experimental part: (§1) The RNeasy Mini Kit (QIAGEN, Venlo, the Netherlands) was used for tumor mRNA extraction. The extracted mRNA was then converted to cDNA making use of the High Capacity cDNA Reverse Transcription Kit (Applied Biosystems, Foster City, CA). Quantitative polymerase chain reactions (qPCR) based on the TaqMan principle were conducted to compare gene expression between samples. Primers and probes (Table 2; Integrated DNA Technologies, Haasrode, Belgium), were diluted to the prescribed working concentrations in RNase-free water and added to the reaction mix in a MicroAmp® fast optical 96-well reaction plate (Applied Biosystems), together with 50 ng sample cDNA per reaction. The actual thermocycler program consisted of 2 minutes on 50 °C, 10 minutes on 95 °C and 40 cycles of 15 seconds on 95 °C followed by 1 minute on 60 °C. Analysis of the obtained CT was based on the 2^−ΔΔC^T method, opting for 18S ribosomal 1 RNA as an internal control.
On the technique in general: Quantitative PCR measures a nucleic acid by following its amplification.

A further experiment concerns NOS2. The experiment can be described thus: qPCR tumor NOS2 mRNA (M1 marker). The format is in vivo, murine. As to conditions: 2.5 μg intratumoral 3×/week; 2^−ΔΔCT; not reaching statistical significance. As for the experimental part: as §1
The test system of a further experiment is IFN-γ. The experiment can be described thus: qPCR tumor IFN-γ mRNA. The conditions noted are these: 2.5 μg intratumoral 3×/week; 2^−ΔΔCT. It is filed as in vivo, murine. As for the experimental part:
as §1

Where [4] appears, read: peptide 3 μg/ml, n=7 in triplicate, p<0.001.
The mark [5] stands for this setting: peptide 10 μg/ml, in triplicate, n=3, p<0.001 (CXCL4^47–70), n=7, p=0.01 (CXCL4L1^47–70).
Setting [6] is: BIAcore X100, HBS-EP+ pH 7.4, Scatchard plot analysis of equilibrium binding data, read-out: Kd at equilibrium.
Where [7] appears, read: BIAcore X100, HBS-EP+ pH 7.4, from Koff/Kon ratio, read-out: Kd (Koff/Kon).
Setting [8] is: BIAcore X100, kinetic and equilibrium values taken together, read-out: Kd (range over both methods).

Read-outs that look alike come from different tables or passages of the source. Where no end group is shown, it is not given here.

“CXCL4L1^47–70: synthetic human carboxy-terminal peptide restricted to the last 24 amino acids of CXCL4L1, Fmoc chemistry”: the “Proliferation index (PI)” value is 0.78 ± 0.04 in the experiment with MDA-MB-231 cells (setting [4]); 0.76 ± 0.08 in the experiment on MDA-MB-231 cells (setting [5]); 0.26 ± 0.04 with MDA-MB-231 cells (peptide 30 μg/ml, n=3 in triplicate, p<0.001). Moreover, the “vascularization of resected tumors (CD31-positive vessels)” value in experiment [1] is recorded as “neither CXCL4^47–70, nor CXCL4L1^47–70 was reflected by a reduced vascularization”. Besides, in experiment [2], the “intratumoral F4/80^+ cells” value was determined as 7.74 ± 1.35%. In experiment [3], the “Dissociation rate (Koff)” value is 0.053 s⁻¹. Further, the “Association rate (Kon)” value in experiment [3] was determined as 52000 M⁻¹ s⁻¹. Besides, the results for the Kd in experiment [3] (setting [6]), in experiment [3] (setting [7]) and in experiment [3] (setting [8]) were 1200 nM, 1000 nM and 1000 to 1200 nM, respectively. Besides, in the experiment on endothelial cell, the “block of FGF2-induced endothelial cell motility and proliferation” value is “retained the ability to block FGF2-induced endothelial cell motility and proliferation”.
For the substance “CXCL4^47–70: synthetic human carboxy-terminal peptide restricted to the last 24 amino acids of CXCL4, Fmoc chemistry (NGRKICLDLQAPLYKKIIKKLLES; not fully specified (N-terminus))”, the “Proliferation index (PI)” value was 0.87 ± 0.04 with MDA-MB-231 cells (peptide 0.3 μg/ml, n=7 in triplicate, p=0.023); 0.66 ± 0.04 in the experiment on MDA-MB-231 cells (setting [4]); 0.21 ± 0.05 with MDA-MB-231 cells (setting [5]). In addition, the “vascularization of resected tumors (CD31-positive vessels)” value in experiment [1] is recorded as “neither CXCL4^47–70, nor CXCL4L1^47–70 was reflected by a reduced vascularization”. In the experiment on CD204, the “CD204 mRNA versus control” value was “only a modest increase”. Further, the “NOS2 mRNA versus control” value in the experiment on NOS2 is “only modestly increased”. Also, the “IFN-γ mRNA versus vehicle” value with IFN-γ was “significantly elevated expression”. The “Dissociation rate (Koff)” value in experiment [3] was determined as 0.011 s⁻¹. In addition, the “Association rate (Kon)” value in experiment [3] amounted to 670000 M⁻¹ s⁻¹. Moreover, the Kd is 72 nM in experiment [3] (setting [6]), 16 nM in experiment [3] (setting [7]) and 16 to 72 nM in experiment [3] (setting [8]). For the same substance, the “block of FGF2-induced endothelial cell motility and proliferation” value in the experiment with endothelial cell was “retained the ability to block FGF2-induced endothelial cell motility and proliferation”.
